Reference: ChEMBL document CHEMBL1201862, “PubChem BioAssay data set” (2004)
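In this assay, cells in 96-well plates receive the compound at five concentrations for 48 hours. Endpoints are linearly interpolated between the surrounding concentrations. GI50 is the concentration that inhibits growth by half.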 Active and inactive are the calls of the source. Cut-off read from the data, not from the text of the source: active = GI50 up to about 1.1 µM and inactive = higher.

Tests used:
Experiment in all cases: growth of human tumour cells (NCI), 48 h
COLO 205 = test system: COLO 205
SF-268 = test system: SF-268
UO-31 = test system: UO-31
RXF 393 = test system: RXF 393
NCI-H460 = test system: NCI-H460
SF-295 = test system: SF-295
NCI-H522 = test system: NCI-H522
SN12C = test system: SN12C
HCT-15 = test system: HCT-15
SNB-19 = test system: SNB-19
DMS-114 = test system: DMS-114
A549 = test system: A549
NCI-H226 = test system: NCI-H226
SNB-75 = test system: SNB-75
SW-620 = test system: SW-620
M14 = test system: M14
NCI-H23 = test system: NCI-H23
IGROV-1 = test system: IGROV-1
SK-MEL-2 = test system: SK-MEL-2
UACC-257 = test system: UACC-257
LOX IMVI = test system: LOX IMVI
A498 = test system: A498
HOP-62 = test system: HOP-62
HCT-116 = test system: HCT-116
MOLT-4 = test system: MOLT-4
786-0 = test system: 786-0
UACC-62 = test system: UACC-62
SK-MEL-28 = test system: SK-MEL-28
OVCAR-5 = test system: OVCAR-5
CCRF-CEM = test system: CCRF-CEM
LXFL 529 = test system: LXFL 529
Malme-3M = test system: Malme-3M
TK-10 = test system: TK-10
XF498 = test system: XF498
DLD-1 = test system: DLD-1
OVCAR-4 = test system: OVCAR-4
HL-60 = test system: HL-60
OVCAR-3 = test system: OVCAR-3
EKVX = test system: EKVX
ACHN = test system: ACHN
KM12 = test system: KM12
U-251 = test system: U-251
M19-MEL = test system: M19-MEL
SF-539 = test system: SF-539
SNB-78 = test system: SNB-78
SK-MEL-5 = test system: SK-MEL-5
HOP-92 = test system: HOP-92
RPMI-8226 = test system: RPMI-8226
HOP-18 = test system: HOP-18
HT-29 = test system: HT-29
K562 = test system: K562
KM-20L2 = test system: KM-20L2
OVCAR-8 = test system: OVCAR-8
HCC 2998 = test system: HCC 2998
SK-OV-3 = test system: SK-OV-3
CAKI-1 = test system: CAKI-1
SR = test system: SR
DMS-273 = test system: DMS-273

## O=C(OCCCl)C1OC(n2cc(F)c(=O)[nH]c2=O)CC1O (centres undefined)
COLO 205
  GI50: > 100 µM (inactive)
SF-268
  GI50: > 100 µM (inactive)
UO-31
  GI50: > 100 µM (inactive)
RXF 393
  GI50: > 100 µM (inactive)
NCI-H460
  GI50: 92 µM (inactive)
SF-295
  GI50: > 100 µM (inactive)
NCI-H522
  GI50: > 100 µM (inactive)
SN12C
  GI50: > 100 µM (inactive)
HCT-15
  GI50: > 100 µM
SNB-19
  GI50: > 100 µM (inactive)
DMS-114
  GI50: > 100 µM (inactive)
A549
  GI50: > 100 µM (inactive)
NCI-H226
  GI50: > 100 µM (inactive)
SNB-75
  GI50: > 100 µM (inactive)
SW-620
  GI50: > 100 µM (inactive)
M14
  GI50: > 100 µM (inactive)
NCI-H23
  GI50: > 100 µM (inactive)
IGROV-1
  GI50: > 100 µM (inactive)
SK-MEL-2
  GI50: > 100 µM (inactive)
UACC-257
  GI50: > 100 µM (inactive)
LOX IMVI
  GI50: > 100 µM (inactive)
A498
  GI50: > 100 µM (inactive)
HOP-62
  GI50: > 100 µM (inactive)
HCT-116
  GI50: > 100 µM (inactive)
MOLT-4
  GI50: > 100 µM (inactive)
786-0
  GI50: > 100 µM (inactive)
UACC-62
  GI50: > 100 µM (inactive)
SK-MEL-28
  GI50: > 100 µM (inactive)
OVCAR-5
  GI50: > 100 µM (inactive)
CCRF-CEM
  GI50: > 100 µM (inactive)
LXFL 529
  GI50: > 100 µM (inactive)
Malme-3M
  GI50: > 100 µM (inactive)
TK-10
  GI50: > 100 µM (inactive)
XF498
  GI50: > 100 µM (inactive)
DLD-1
  GI50: > 100 µM (inactive)
OVCAR-4
  GI50: > 100 µM (inactive)
HL-60
  GI50: > 100 µM (inactive)
OVCAR-3
  GI50: > 100 µM (inactive)
EKVX
  GI50: > 100 µM (inactive)
ACHN
  GI50: > 100 µM (inactive)
KM12
  GI50: > 100 µM (inactive)
U-251
  GI50: > 100 µM (inactive)
M19-MEL
  GI50: > 100 µM (inactive)
SF-539
  GI50: > 100 µM (inactive)
SNB-78
  GI50: > 100 µM (inactive)
SK-MEL-5
  GI50: > 100 µM (inactive)
HOP-92
  GI50: 57.8 µM (inactive)
RPMI-8226
  GI50: > 100 µM (inactive)
HOP-18
  GI50: > 100 µM (inactive)
HT-29
  GI50: > 100 µM (inactive)
K562
  GI50: > 100 µM (inactive)
KM-20L2
  GI50: > 100 µM (inactive)
OVCAR-8
  GI50: > 100 µM (inactive)
HCC 2998
  GI50: 27.7 µM (inactive)
SK-OV-3
  GI50: > 100 µM (inactive)

## CC1(C)C(=O)/C=C\C(=O)C(C)(C)C2=CC=C(O2)C(C)(C)C(=O)/C=C\C(=O)C(C)(C)C2=CC=C1O2
COLO 205
  GI50: > 100 µM (inactive)
SF-268
  GI50: > 100 µM (inactive)
CAKI-1
  GI50: > 100 µM (inactive)
RXF 393
  GI50: > 100 µM (inactive)
NCI-H460
  GI50: > 100 µM (inactive)
SF-295
  GI50: > 100 µM (inactive)
NCI-H522
  GI50: > 100 µM (inactive)
SN12C
  GI50: > 100 µM (inactive)
HCT-15
  GI50: > 100 µM
SNB-19
  GI50: > 100 µM (inactive)
A549
  GI50: > 100 µM (inactive)
NCI-H226
  GI50: > 100 µM (inactive)
SR
  GI50: > 100 µM (inactive)
SW-620
  GI50: > 100 µM (inactive)
DMS-273
  GI50: > 100 µM (inactive)
NCI-H23
  GI50: > 100 µM (inactive)
IGROV-1
  GI50: > 100 µM (inactive)
SK-MEL-2
  GI50: > 100 µM (inactive)
UACC-257
  GI50: > 100 µM (inactive)
LOX IMVI
  GI50: > 100 µM (inactive)
A498
  GI50: > 100 µM (inactive)
HOP-62
  GI50: > 100 µM (inactive)
HCT-116
  GI50: > 100 µM (inactive)
MOLT-4
  GI50: > 100 µM (inactive)
786-0
  GI50: > 100 µM (inactive)
SK-MEL-28
  GI50: > 100 µM (inactive)
OVCAR-5
  GI50: > 100 µM (inactive)
CCRF-CEM
  GI50: > 100 µM (inactive)
LXFL 529
  GI50: > 100 µM (inactive)
Malme-3M
  GI50: > 100 µM (inactive)
TK-10
  GI50: > 100 µM (inactive)
XF498
  GI50: > 100 µM (inactive)
OVCAR-4
  GI50: > 100 µM (inactive)
HL-60
  GI50: > 100 µM (inactive)
OVCAR-3
  GI50: > 100 µM (inactive)
EKVX
  GI50: > 100 µM (inactive)
ACHN
  GI50: > 100 µM (inactive)
KM12
  GI50: > 100 µM (inactive)
U-251
  GI50: > 100 µM (inactive)
M19-MEL
  GI50: > 100 µM (inactive)
SNB-78
  GI50: > 100 µM (inactive)
HOP-92
  GI50: > 100 µM (inactive)
HOP-18
  GI50: > 100 µM (inactive)
HT-29
  GI50: > 100 µM (inactive)
K562
  GI50: > 100 µM (inactive)
KM-20L2
  GI50: > 100 µM (inactive)
OVCAR-8
  GI50: > 100 µM (inactive)
HCC 2998
  GI50: > 100 µM (inactive)
SK-OV-3
  GI50: > 100 µM (inactive)

## N#CCCN(CCC#N)c1ccc(/C=C2\N=C(c3cc([N+](=O)[O-])ccc3Cl)N(S(=O)(=O)c3ccccc3)C2=O)cc1
COLO 205
  GI50: > 100 µM (inactive)
SF-268
  GI50: > 100 µM (inactive)
CAKI-1
  GI50: > 100 µM (inactive)
UO-31
  GI50: > 100 µM (inactive)
RXF 393
  GI50: > 100 µM (inactive)
SF-295
  GI50: > 100 µM (inactive)
NCI-H522
  GI50: > 100 µM (inactive)
SN12C
  GI50: > 100 µM (inactive)
HCT-15
  GI50: > 100 µM
SNB-19
  GI50: > 100 µM (inactive)
DMS-114
  GI50: > 100 µM (inactive)
A549
  GI50: > 100 µM (inactive)
NCI-H226
  GI50: > 100 µM (inactive)
SR
  GI50: > 100 µM (inactive)
SW-620
  GI50: > 100 µM (inactive)
DMS-273
  GI50: > 100 µM (inactive)
NCI-H23
  GI50: > 100 µM (inactive)
IGROV-1
  GI50: > 100 µM (inactive)
SK-MEL-2
  GI50: > 100 µM (inactive)
LOX IMVI
  GI50: > 100 µM (inactive)
HOP-62
  GI50: > 100 µM (inactive)
HCT-116
  GI50: > 100 µM (inactive)
MOLT-4
  GI50: > 100 µM (inactive)
UACC-62
  GI50: > 100 µM (inactive)
SK-MEL-28
  GI50: > 100 µM (inactive)
OVCAR-5
  GI50: > 100 µM (inactive)
CCRF-CEM
  GI50: > 100 µM (inactive)
LXFL 529
  GI50: > 100 µM (inactive)
Malme-3M
  GI50: > 100 µM (inactive)
TK-10
  GI50: > 100 µM (inactive)
XF498
  GI50: > 100 µM (inactive)
DLD-1
  GI50: > 100 µM (inactive)
OVCAR-4
  GI50: > 100 µM (inactive)
OVCAR-3
  GI50: > 100 µM (inactive)
EKVX
  GI50: > 100 µM (inactive)
ACHN
  GI50: > 100 µM (inactive)
KM12
  GI50: > 100 µM (inactive)
U-251
  GI50: > 100 µM (inactive)
M19-MEL
  GI50: > 100 µM (inactive)
SF-539
  GI50: > 100 µM (inactive)
SNB-78
  GI50: > 100 µM (inactive)
SK-MEL-5
  GI50: > 100 µM (inactive)
HOP-92
  GI50: > 100 µM (inactive)
RPMI-8226
  GI50: > 100 µM (inactive)
HOP-18
  GI50: 37.7 µM (inactive)
K562
  GI50: > 100 µM (inactive)
KM-20L2
  GI50: > 100 µM (inactive)
OVCAR-8
  GI50: > 100 µM (inactive)
HCC 2998
  GI50: > 100 µM (inactive)
SK-OV-3
  GI50: > 100 µM (inactive)
